Starred links: 1 amine or outer side, 2 acyl side, 3 side chain; linkers in the order of their positions; H or OH if unused. Positions of bridges follow the written chain, without caps; N, C: chain ends. Non-standard residues stand in square brackets, D forms with d. Residues, ends and D or L forms follow the SMILES beside them. Adda = CO[C@@H](Cc1ccccc1)[C@@H](C)/C=C(C)/C=C/[C@H](N[*:1])[C@H](C)C(=O)[*:2]; dAsp(3S-Me) = C[C@H](C(=O)[*:3])[C@@H](N[*:1])C(=O)[*:2]; d(γGlu) = O=C(O)[C@@H](CCC(=O)[*:2])N[*:1]; NMeDha = C=C(NC)C(=O)O
Legend:
SGK [1] = test: Activation of GST-SGK in transfected 293 cells (Example 1); assay type: cell-based, human; conditions: PMA 400 ng/ml 30 min, EGF 100 ng/ml 30 min
SGK2α = test: Activation of GST-SGK2α in transfected 293 cells (Example 5); assay type: cell-based, human
Experimental: (§1) Cells were transiently transfected with DNA constructs expressing (A) GST-SGK1, (B), GST-SGK2α and (C) GST-SGK3. At 24 h after transfection, the cells were deprived of serum for 16 h, then exposed to 50 ng/ml IGF-1 (10 min), 400 ng/ml phorbol myristate acetate (PMA) (30 min), 10% serum (30 min), 1 μM dexamethasone (Dex, 60 min), 2 mM H2O2 (25 min), 5 μg/ml anisomycin (AN, 30 min), 0.4 M sorbitol (30 min), hypotonic stress (1 ml of water added to 3 ml of DMEM, 30 min), UV radiation (30 min after exposure to 200 J/m2) or left untreated (control). After each treatment, the cells were lysed in ice-cold lysis buffer and SGK activity in 100 μg of cell lysate protein was measured.
(§2) FIG. 20. […] Cells were transiently transfected with DNA constructs expressing (A) GST-SGK1, (B) GST-SGK2α and (C) GST-SGK3. At 24 h after transfection, the cells were deprived of serum for 16 h. The transfectants were then pretreated for 10 min with 100 nM wortmannin or for 1 h with 100 μM LY294002 and then stimulated for 25 min with 2 mM H2O2.
(§3) Expression of SGK isoforms in 293 cells. […] After each treatment, the cells were lysed and the activity of SGK isoforms was measured after affinity purification of the GST-fusion proteins on glutathione Sepharose, as described previously for SGK1 [18].

SGK3 [2] = test: Activation of GST-SGK3 in transfected 293 cells (Example 5); assay type: cell-based, human
Experimental: as §1, §2, §3

SGK1 = test: Activation of GST-SGK1 in transfected 293 cells (Example 5); assay type: cell-based, human
Experimental: as §1, §2, §3

[3] = test system: protein phosphatase 2A (PP2A); assay type: biochemical
SGK2 = molecular target: T1, SGK2 (Homo sapiens, UniProt Q9HBY8); test: Activation of SGK2 by PDK1 in vitro; assay type: biochemical; conditions: 10 μM in PS/PC lipid vesicles
T1 construct: pEBG-SGK2α expressing full length of SGK2α; made in house; host or cells: 293 cells
T1 sequence (Q9HBY8 1-367): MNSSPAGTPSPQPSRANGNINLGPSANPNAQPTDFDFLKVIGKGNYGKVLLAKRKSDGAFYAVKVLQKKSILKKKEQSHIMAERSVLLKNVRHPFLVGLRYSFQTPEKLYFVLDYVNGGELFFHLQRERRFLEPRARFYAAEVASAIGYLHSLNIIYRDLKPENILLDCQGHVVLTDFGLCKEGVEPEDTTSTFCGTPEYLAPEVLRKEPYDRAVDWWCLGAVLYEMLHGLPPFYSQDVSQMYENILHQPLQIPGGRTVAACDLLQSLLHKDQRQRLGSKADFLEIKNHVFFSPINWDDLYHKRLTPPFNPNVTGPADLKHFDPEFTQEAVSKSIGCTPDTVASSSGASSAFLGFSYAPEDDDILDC
Experimental: (§4) Each GST-SGK isoform (0.4 μg) was incubated for 20 min at 30° C. with protein phosphatase 2A (PP2A, 30 mU/ml) in a 10 μl incubation containing 20 mM Tris/HCl, pH 7.5, 0.1% (v/v) 2-mercaptoethanol, 0.1 mM EGTA and 1 mg/ml bovine serum albumin. After addition of microcystin-LR to 1 μM to inactivate PP2A, SGK (0.4 μg) was phosphorylated for 30 min at 30° C. in a mixture (20 μl) containing 50 mM Tris/HCl, pH 7.5, 10 mM MgCl2, 0.1% (v/v) 2-mercaptoethanol, 0.1 mM EGTA, GST-PDK1 (0.03–300 ng) diluted in Buffer C and 100 μM unlabelled ATP. SGK assays were initiated by the addition of 30 μl of a mixture containing 50 mM Tris/HCl, pH 7.5, 10 mM MgCl2, 0.1% (v/v) 2-mercaptoethanol, 0.1 mM EGTA, 100 μM [γ-^32P] ATP (500 c.p.m/pmol), 50 μM of the peptide substrate Crosstide ([…]) (SEQ. ID. NO:30) and 4.2 μM of residues 5–24 of the specific protein inhibitor of adenosine 3′5′ cyclic monophosphate-dependent protein kinase. After 10 min at 30° C., the reactions were terminated by spotting aliquots on to P81 phosphocellulose paper, followed by immediate immersion in 75 mM phosphoric acid. The papers were washed, dried and analysed. One unit (U) of SGK was that amount which phosphorylated 1 nmole of Crosstide in one min.

SGK [4] = molecular target: T2, SGK (Homo sapiens, UniProt O00141); test: Phosphorylation and activation of SGK by PDK1 in vitro; assay type: biochemical; conditions: 1 μM PtdIns(3,4,5)P3, with or without PS/PC lipid vesicles
T2 construct: PEBG-SGK expressing full length SGK; made in house; host or cells: 293 cells
T2 sequence (O00141 whole entry, looked up): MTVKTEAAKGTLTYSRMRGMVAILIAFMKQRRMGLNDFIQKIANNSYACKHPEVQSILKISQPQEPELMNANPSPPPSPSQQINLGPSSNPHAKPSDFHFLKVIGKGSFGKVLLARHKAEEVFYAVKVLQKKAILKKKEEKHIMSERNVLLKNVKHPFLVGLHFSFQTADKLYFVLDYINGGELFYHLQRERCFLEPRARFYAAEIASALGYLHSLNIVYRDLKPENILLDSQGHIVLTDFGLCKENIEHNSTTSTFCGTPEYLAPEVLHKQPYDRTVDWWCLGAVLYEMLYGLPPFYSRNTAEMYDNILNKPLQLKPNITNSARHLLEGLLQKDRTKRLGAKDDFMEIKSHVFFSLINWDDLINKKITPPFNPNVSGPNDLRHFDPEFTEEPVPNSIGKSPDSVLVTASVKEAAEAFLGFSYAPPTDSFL
Experimental: (A) GST-SGK (0.3 μg) was phosphorylated using GST-PDK1 (0.1 μg) and [γ-^32P] ATP (500 cpm/pmol) as described under Methods. Where indicated (+), 1 μM PtdIns(3,4,5)P3 in lipid vesicles containing phosphatidylserine (100 μM) and phosphatidylcholine (100 μM) (PS/PC) were also included. The reactions were stopped by the addition of SDS to 2% and, after heating for 5 min at 95° C., the samples were subjected to electrophoresis on 10% SDS/polyacrylamide gels, stained with Coomasssie blue and then autoradiographed. The positions of the molecular mass markers are also indicated (B) Same as (A), except that unlabelled ATP was used instead of [γ-^32P] ATP. After incubation for 10 min at 30° C., 10 μl aliquots were assayed for SGK activity using Crosstide as substrate. The results are shown ±SD for three separate experiments.
Phosphorylation and assay of SGK. Phosphorylation was carried out at 30° C. in 50 μl incubations containing 50 mM Tris/HCl pH 7.5, 0.1 mM EGTA, 0.1% (v/v) 2-mercaptoethanol, 2.5 μM PKI, 1 μM microcystin-LR, 10 mM magnesium chloride and 100 μM ATP. Where indicated lipid vesicles containing phosphatidylcholine (100 μM), phosphatidyl serine (100 μM) and PtdIns(3,4,5)P3 (1 μM) were also included. SGK activity was assayed exactly as described for PKB [6] using the peptide […] (SEQ. ID. NO:30) (“Crosstide”) at 30 μM as substrate. […]

SGK3 [5] = molecular target: T3, SGK3 (Homo sapiens, UniProt Q96BR1); test: Activation of SGK3 by PDK1 in vitro; assay type: biochemical; conditions: 10 μM in PS/PC lipid vesicles
T3 construct: made in house; host or cells: 293 cells
T3 sequence (Q96BR1 68-496 limits assumed): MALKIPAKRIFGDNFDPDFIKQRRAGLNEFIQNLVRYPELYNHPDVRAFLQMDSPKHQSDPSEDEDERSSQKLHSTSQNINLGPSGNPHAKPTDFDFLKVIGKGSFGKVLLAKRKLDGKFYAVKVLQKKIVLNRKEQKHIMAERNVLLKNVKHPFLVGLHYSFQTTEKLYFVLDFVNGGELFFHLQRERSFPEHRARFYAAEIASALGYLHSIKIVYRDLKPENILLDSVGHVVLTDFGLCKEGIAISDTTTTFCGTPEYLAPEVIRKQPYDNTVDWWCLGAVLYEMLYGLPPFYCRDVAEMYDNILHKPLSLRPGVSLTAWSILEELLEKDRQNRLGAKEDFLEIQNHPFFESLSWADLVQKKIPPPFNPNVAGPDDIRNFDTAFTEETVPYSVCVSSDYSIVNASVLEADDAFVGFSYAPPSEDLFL
Experimental: as §4

[6] = IGF-1 50 ng/ml 10 min, H2O2 2 mM 25 min
[7] = 10% serum 30 min, 0.4 M sorbitol 30 min

CCCCCCCCCCCCCC(=O)O[C@@H]1[C@@H](C)[C@@]2(O)[C@@H](C=C(CO)C[C@]3(O)C(=O)C(C)=C[C@@H]23)[C@@H]2C(C)(C)[C@]12OC(C)=O [Phorbol myristate acetate, reference compound]
Activation of SGK by the stimulus (in words) (SGK [1]): did not induce any activation

OO [hydrogen peroxide]
Activation of SGK2α by the stimulus (SGK2α; [6]): 5 fold | Activation of SGK3 by the stimulus (SGK3 [2]; [6]): 5 fold | Activation of SGK1 by the stimulus (SGK1; [6]): five fold

C=C1C(=O)N[C@H](C)C(=O)N[C@@H](CC(C)C)C(=O)N[C@@H](C(=O)O)[C@H](C)C(=O)N[C@@H](CCCNC(=N)N)C(=O)N[C@@H](/C=C/C(C)=C/[C@H](C)[C@H](Cc2ccccc2)OC)[C@H](C)C(=O)N[C@@H](C(=O)O)CCC(=O)N1C [microcystin, microcystin-LR] (R[Adda][d(γGlu)][NMeDha][dA]L[dAsp(3S-Me)]-OH; lactam N-7)
Effect on inactivation of GST-SGK by PP2A [3]: prevented

OC[C@@H](O)[C@@H](O)[C@H](O)[C@@H](O)CO [sorbitol]
Effect of the stimulus on SGK2α activity (in words) (SGK2α; [7]): had no effect | Effect of the stimulus on SGK3 activity (in words) (SGK3 [2]; [7]): had no effect | Effect of the stimulus on SGK1 activity (in words) (SGK1; [7]): potently inhibited

EGF: activator of the classical MAP kinase cascade in 293 cells
Activation of SGK by the stimulus (in words) (SGK [1]): did not induce any activation

PtdIns(3,4,5)P3
Effect on activation of SGK2 by PDK1 (SGK2): slightly inhibited | Effect on phosphorylation and activation of SGK by PDK1 (SGK [4]): unaffected | Effect on activation of SGK3 by PDK1 (SGK3 [5]): slightly inhibited
